Assay results published in ChEMBL document CHEMBL1201862, “PubChem BioAssay data set” (2004).
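Method: 48-hour compound exposure of cells in 96-well plates, five concentrations, linear interpolation of endpoints. GI50: concentration for 50% inhibition of growth.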 Activity calls are given as the source filed them. No stated cut-off is given here; in the data, active = GI50 up to about 1.1 µM and inactive = higher.

Key:
Test in all cases: inhibition of tumour cell growth, NCI panel, 48 h
[1] = test system: SW-620
[2] = test system: NCI-H226
[3] = test system: DMS-114
[4] = test system: SNB-78
[5] = test system: OVCAR-4
[6] = test system: KM-20L2
[7] = test system: KM12
[8] = test system: SF-268
[9] = test system: K562
[10] = test system: SR
[11] = test system: SK-MEL-5
[12] = test system: MOLT-4
[13] = test system: LOX IMVI
[14] = test system: CAKI-1
[15] = test system: SK-MEL-28
[16] = test system: A498
[17] = test system: MCF7
[18] = test system: NCI/ADR-RES
[19] = test system: PC-3
[20] = test system: MDA-MB-231

SMILES	GI50 [1]	GI50 [2]	GI50 [3]	GI50 [4]	GI50 [5]	GI50 [6]	GI50 [7]	GI50 [8]	GI50 [9]	GI50 [10]	GI50 [11]	GI50 [12]	GI50 [13]	GI50 [14]	GI50 [15]	GI50 [16]	GI50 [17]	GI50 [18]	GI50 [19]	GI50 [20]
O=C(NCc1cccnc1)C1COc2cc(-c3cc(=O)c4ccccc4o3)ccc2O1 (stereo not drawn)	> 100 µM (inactive)	3.62 µM (inactive)	14.1 µM (inactive)	> 82.8 µM (inactive)	55.3 µM (inactive)	> 100 µM (inactive)	> 36.1 µM (inactive)	3.89 µM (inactive)	> 80.2 µM (inactive)	5.46 µM (inactive)	26.1 µM (inactive)	5.14 µM (inactive)	3.38 µM (inactive)	> 63.7 µM (inactive)	3.49 µM (inactive)	> 61.4 µM (inactive)	–	–	–	–
COc1cccc(/C=C2\N=C(Cl)OC2=O)c1O	> 66.4 µM (inactive)	> 100 µM (inactive)	> 100 µM (inactive)	> 100 µM (inactive)	> 100 µM (inactive)	> 100 µM (inactive)	> 100 µM (inactive)	> 80 µM (inactive)	> 100 µM (inactive)	> 88.9 µM (inactive)	> 100 µM (inactive)	> 100 µM (inactive)	> 100 µM (inactive)	> 100 µM (inactive)	> 100 µM (inactive)	> 100 µM (inactive)	–	–	–	–
COc1cc(C2c3cc4c(cc3[C@H](OCCN(C)C)[C@@H]3COC(=O)C23)OCO4)cc(OC)c1O (stereo partly drawn)	0.422 µM (active)	0.0441 µM (active)	–	3.83 µM (inactive)	1.84 µM (inactive)	0.364 µM (active)	0.69 µM (active)	0.194 µM (active)	0.713 µM (active)	0.218 µM (active)	0.307 µM (active)	< 0.0123 µM (active)	0.0931 µM (active)	0.0519 µM (active)	1.02 µM (active)	0.105 µM (active)	0.0484 µM (active)	2.67 µM (inactive)	0.805 µM (active)	2.62 µM (inactive)
Nc1nc(N)c(-c2ccccc2)c(C(=O)Nc2ccccc2)n1	> 100 µM (inactive)	> 100 µM (inactive)	–	> 100 µM (inactive)	> 100 µM (inactive)	> 100 µM (inactive)	> 100 µM (inactive)	> 100 µM (inactive)	> 100 µM (inactive)	–	> 100 µM (inactive)	> 100 µM (inactive)	> 100 µM (inactive)	> 100 µM (inactive)	> 100 µM (inactive)	> 100 µM (inactive)	–	–	–	–
CC(C)(C)C1CC[C@H]2c3c([nH]c4ccccc34)[C@H]3C(=O)N(c4ccc(F)cc4)C(=O)[C@H]3[C@H]2C1 (stereo partly drawn)	17 µM (inactive)	19.1 µM (inactive)	17.1 µM (inactive)	18.4 µM (inactive)	11.2 µM (inactive)	17.5 µM (inactive)	14.1 µM (inactive)	13.6 µM (inactive)	20.7 µM (inactive)	–	18.7 µM (inactive)	13.2 µM (inactive)	20.3 µM (inactive)	17.9 µM (inactive)	23.6 µM (inactive)	29.9 µM (inactive)	–	–	–	–
O=C(O/N=C1/CCCC/C1=C\c1ccccc1)c1ccc(Cl)c(Cl)c1	18.7 µM (inactive)	45.9 µM (inactive)	–	19.1 µM (inactive)	20.7 µM (inactive)	65.3 µM (inactive)	46.7 µM (inactive)	11.5 µM (inactive)	15.8 µM (inactive)	8.2 µM (inactive)	38.5 µM (inactive)	13.3 µM (inactive)	20 µM (inactive)	27.3 µM (inactive)	18.3 µM (inactive)	–	–	–	–	–
Nc1ccc(C(=O)NN2C(=O)C(Cl)C2c2cc(Br)cc(Br)c2O)cc1 (stereo not drawn)	16.7 µM (inactive)	5.82 µM (inactive)	4.22 µM (inactive)	63.8 µM (inactive)	10.3 µM (inactive)	33.3 µM (inactive)	22.8 µM (inactive)	3.98 µM (inactive)	–	24.3 µM (inactive)	16.5 µM (inactive)	4.89 µM (inactive)	8.85 µM (inactive)	3.66 µM (inactive)	22.9 µM (inactive)	–	–	–	–	–
COc1ccc2c3c([nH]c2c1[N+](=O)[O-])C(C)N(C(=O)/C=C/c1ccccc1)CC3 (stereo not drawn)	3.56 µM (inactive)	10.9 µM (inactive)	–	7.05 µM (inactive)	21.9 µM (inactive)	4.18 µM (inactive)	4.24 µM (inactive)	1.7 µM (inactive)	2.88 µM (inactive)	3.92 µM (inactive)	–	2.64 µM (inactive)	2.92 µM (inactive)	3.66 µM (inactive)	5.14 µM (inactive)	2.62 µM (inactive)	–	–	–	–
COc1ccc2c3c1O[C@]1(C)C34CCN(C)C(C2)C42C=C[C@@]1(OC)c1c(O)ccc(O)c12	> 100 µM (inactive)	–	> 100 µM (inactive)	61.8 µM (inactive)	–	> 100 µM (inactive)	> 100 µM (inactive)	> 100 µM (inactive)	> 100 µM (inactive)	–	> 100 µM (inactive)	> 100 µM (inactive)	> 100 µM (inactive)	–	> 100 µM (inactive)	> 100 µM (inactive)	–	–	–	–
O=c1oc2ccccc2c(O)c1C(C/C(CCN1CCCC1)=N\Nc1ccccc1)c1ccccc1 (stereo not drawn)	44.6 µM (inactive)	71.9 µM (inactive)	–	> 100 µM (inactive)	97.7 µM (inactive)	> 100 µM (inactive)	60.5 µM (inactive)	> 100 µM (inactive)	46.2 µM (inactive)	31.2 µM (inactive)	46.3 µM (inactive)	–	55.6 µM (inactive)	> 100 µM (inactive)	–	> 100 µM (inactive)	–	–	–	–
O=S(=O)(SCCCCSS(=O)(=O)c1ccc(Cl)cc1)c1ccc(Cl)cc1	9.46 µM (inactive)	–	6.67 µM (inactive)	18.6 µM (inactive)	15.1 µM (inactive)	18 µM (inactive)	9.68 µM (inactive)	10.5 µM (inactive)	20 µM (inactive)	–	16.7 µM (inactive)	2.73 µM (inactive)	3.39 µM (inactive)	12.7 µM (inactive)	17.8 µM (inactive)	16.6 µM (inactive)	–	–	–	–
Cn1c(NC(=O)NC23CC4CC(CC(C4)C2)C3)nc2ccccc21	> 100 µM (inactive)	93.5 µM (inactive)	–	23.8 µM (inactive)	4.22 µM (inactive)	> 100 µM (inactive)	> 100 µM (inactive)	28.5 µM (inactive)	> 100 µM (inactive)	> 100 µM (inactive)	91 µM (inactive)	> 100 µM (inactive)	> 100 µM (inactive)	48.6 µM (inactive)	96.4 µM (inactive)	–	–	–	–	–
CC1(CO)OC(n2cc(C(=O)NC(=O)OCc3ccccc3)c(=O)[nH]c2=O)CC1O (stereo not drawn)	> 100 µM (inactive)	> 100 µM (inactive)	> 100 µM (inactive)	–	–	> 100 µM (inactive)	> 100 µM (inactive)	> 100 µM (inactive)	> 100 µM (inactive)	> 100 µM (inactive)	> 100 µM (inactive)	> 100 µM (inactive)	> 100 µM (inactive)	> 100 µM (inactive)	> 100 µM (inactive)	> 100 µM (inactive)	–	–	–	–
c1cnn(CN(Cn2cccn2)Cn2cccn2)c1	> 100 µM (inactive)	–	> 100 µM (inactive)	> 100 µM (inactive)	> 100 µM (inactive)	> 100 µM (inactive)	> 100 µM (inactive)	> 100 µM (inactive)	> 100 µM (inactive)	> 100 µM (inactive)	> 100 µM (inactive)	> 100 µM (inactive)	> 100 µM (inactive)	> 100 µM (inactive)	> 100 µM (inactive)	> 100 µM (inactive)	–	–	–	–
CCNC(=O)c1ccc(C)c(/N=N/N(C)C)c1	> 100 µM (inactive)	–	–	> 100 µM (inactive)	> 100 µM (inactive)	> 100 µM (inactive)	> 100 µM (inactive)	77.1 µM (inactive)	–	–	> 100 µM (inactive)	–	> 100 µM (inactive)	> 100 µM (inactive)	> 100 µM (inactive)	–	–	–	–	–
CN/C=C(/c1ccc(OC)cc1)C(O)c1ccc(OC)c(OC)c1 (stereo not drawn)	> 100 µM (inactive)	> 100 µM (inactive)	> 100 µM (inactive)	–	> 100 µM (inactive)	> 100 µM (inactive)	> 100 µM (inactive)	–	> 100 µM (inactive)	> 100 µM (inactive)	> 100 µM (inactive)	> 100 µM (inactive)	> 100 µM (inactive)	–	> 100 µM (inactive)	> 100 µM (inactive)	–	–	–	–
CCN1CCC(O)(c2ccc(C)cc2)C(C(=O)c2ccc(C)cc2)C1 (stereo not drawn)	16.8 µM (inactive)	> 100 µM (inactive)	–	> 51.8 µM (inactive)	21.5 µM (inactive)	13 µM (inactive)	33.1 µM (inactive)	> 53 µM (inactive)	32.1 µM (inactive)	23.9 µM (inactive)	> 42.3 µM (inactive)	29 µM (inactive)	26.2 µM (inactive)	17.2 µM (inactive)	23.9 µM (inactive)	> 59.2 µM (inactive)	–	–	–	–
O=C(c1ccccc1)C(C(=O)c1ccccc1)C1(O)C(=O)c2ccccc2C1=O	38.7 µM (inactive)	37.1 µM (inactive)	> 10 µM (inactive)	62.2 µM (inactive)	–	34.9 µM (inactive)	51.5 µM (inactive)	24.7 µM (inactive)	15.8 µM (inactive)	29.1 µM (inactive)	> 10 µM (inactive)	19.8 µM (inactive)	32.4 µM (inactive)	–	3.6 µM (inactive)	47.4 µM (inactive)	–	–	–	–
O=NN(CCCl)C(=O)NC1CCCCC1 [LOMUSTINE]	27.7 µM (inactive)	64.4 µM (inactive)	45.8 µM (inactive)	–	61.4 µM (inactive)	60.3 µM (inactive)	71.4 µM (inactive)	24.5 µM (inactive)	22 µM (inactive)	–	54.7 µM (inactive)	18.4 µM (inactive)	9.91 µM (inactive)	–	58.7 µM (inactive)	74.3 µM (inactive)	35.5 µM (inactive)	51.3 µM (inactive)	32.4 µM (inactive)	21.6 µM (inactive)
